Measurements: patent US20120027819A1, “Medical Devices Incorporating a Bioactive and Methods of Preparing Such Devices” (priority 2006, published 2012)

How the values were obtained:
[1] = Elution of bupivacaine from spray-coated ureteral stents in aqueous buffers (Example 1, FIG. 7); type: physicochemical; conditions: for time to release/elute from coated stent (in words): ionic form coated on stent, aqueous environment, same conditions, hydrochloride
Text: (§1) An approximately 0.6% solution of bupivacaine having a tertiary amine in the non-ionic form (formula (2a) above) in dichloromethane was loaded into a syringe mounted onto a syringe pump and connected to a tube that carried the solution to an ultrasonic nozzle (Model 06-05108—Sono-Tek Co., Poughkeepsie, N.Y. 12547.) A nozzle was 6 mm diameter, 11 mm long and used with a nominal frequency of 120 kHz. Air was purged from the solution line and the spray nozzle primed with the solution. The coating chamber was purged with nitrogen to attain an oxygen concentration below 100 ppm. The solution was sprayed onto ureteral stent substrates 20 to 280 mm long (polyurethane double pigtail soflex ureteral stent, Cook Incorporated (Bloomington, Ind.)). A smooth, uniform coating was observed. Control stents were coated with the same concentration of Bupivacaine.HCl using the above coating method.
The stents were placed in solutions at different pH values to test the elution of bupivacaine over time. […] Acetic acid/sodium acetate was used for the pH 4.5 buffer, 0.1M phosphate-buffered solution (PBS) for the pH 7.0 buffer, and sodium carbonate for the pH 9.5 buffer.

[2] = Exposure of coated ureteral stent to water / aqueous environment (FIGS. 8, 10); type: physicochemical
Text: as §1
FIGS. 8-11 depict photomicrographs of the coatings showing the uniformity and tenacity of the non-ionic coatings, in contrast to the water-soluble ionic coatings. […] FIG. 9 depicts a relatively rough, crystalline coating 91 of bupivacaine-HCl on a ureteral stent 90, on the left, and the same stent after a one-minute ex vivo exposure to a pig ureter.
FIG. 11 then depicts the same type of stent 110 with a coating 114 of the non-ionic form of bupivacaine after 24 hours in an ex vivo test with a pig ureter.

[3] = cited from earlier work
[4] = cited from earlier work; remark: listed apart in the source

Compound | time to release/elute from coated stent (in words) [1] | time to release/elute from coated stent (in words) ([1]; listed as bupivacaine.HCl) | state of coating after dipping in water ([2]; dipped in water for one minute) | water solubility (in words) [3] | effect of eluting solution pH on elution rate ([1]; increasing the pH from 4.5 to 9.5) | period over which release from ureteral stent occurs ([1]; non-ionic form coated on ureteral stent, buffers pH 4.5, 7.0, 9.5) | state of coating after aqueous exposure ([2]; exposed to an aqueous environment for several days) | pKa ([4]; Table 1, acidic proton of proton binding site) | pKa of acidic proton of proton binding site ([4]; in water) | solubility ([3]; base or non-ionic form, water)
CCCCN1CCCCC1C(=O)Nc1c(C)cccc1C.Cl (stereo not drawn) [Bupivacaine.HCl, 1-butyl-N-(2,6-dimethylphenyl)-2-piperidinecarboxamide hydrochloride] | within a matter of minutes | eluted fully within minutes | substantially dissolved | soluble in water | – | – | – | – | – | –
C[C@@H]1C[C@H]2[C@@H]3CCC4=CC(=O)C=C[C@]4(C)[C@@]3(F)[C@@H](O)C[C@]2(C)[C@@]1(O)C(=O)CO [Dexamethasone] | – | – | – | practically insoluble in water | – | – | – | – | – | –
CCCCN1CCCCC1C(=O)Nc1c(C)cccc1C (stereo not drawn) [bupivacaine, 1-Butyl-N-(2,6-dimethylphenyl)-2-piperidinecarboxamide] | – | – | – | only very slightly soluble in water | slightly slowed the rate of bupivacaine elution | about 12 days | virtually no effect on the coating | 8.09 | about 8 | about 0.2 mg/mL
